Laboratory results reported in article PMC11589570, “Critical assessment of LC3/GABARAP ligands used for degrader development and ligandability of LC3/GABARAP binding pockets” (Nature Communications, 2024).
Values joined by “and” are separate entries in the source; they are usually repeats but may differ in a detail not shown here. Equal entries are not always repeated. Each block holds one compound with its values, some of them ahead of it.

How the values were obtained:
[1] = molecular target: LC3A (Homo sapiens, UniProt Q9H492); experiment: FP assay with Cy5-labelled p62 LIR tracer (protein titration and tracer displacement); type: binding; conditions: LC3A tracer displacement, normalized on p62-LIR positive control
[2] = tested on: RPE1 cells; experiment: Cell growth assay (IncuCyte confluence over 72 h); type: cell-based
Method: (§1) Cell growth assay: Cell confluence (phase) from RPE1 (hTERT RPE-1, ATCC CLR_4000) or U2OS (ATCC, HTB-96) cell lines were monitored over time with the IncuCyte S3 (Sartiorius, Germany) in 384-well plates in 50 ul DMEM media, supplemented with 10% Fetal Bovine Serum (FBS) 1% penicillin/Streptomycin and incubated 24 h before treatment. Experiment was performed as described in Cano-Franco et al.. 50 μl of media containing either 2× final concentration of indicated compounds in or control compounds (final conc.: 0.1% DMSO, 250 nM Torin1, 200 ng/mL Bafilomycin) were added and images were taken every two hours over 72 h. Cell confluence is represented as % of area covered by cells. Each data point represents the average ratio or confluence obtained from three individual wells of the plate.

[3] = tested on: U2OS cells; experiment: Cell growth assay (IncuCyte confluence over 72 h); type: cell-based; parameters: key to U2OS cell growth: % of well area covered by cells (confluence)
Method: as §1, with “50 μl of media containing either 2× final concentration of indicated compounds in or control compounds (final conc.: 0.1% DMSO, 250 nM Torin1, 200 ng/mL Bafilomycin) were added and images were taken every two hours over 72 h.” left out

SMILES: CCC(Sc1nc(Cl)cc(Nc2nc(-c3ccc(Cl)cc3)cs2)n1)C(=O)O (centres unmarked) [TH035]
- % tracer bound @LC3A [1]: 85%

SMILES: CCCCCCC(Sc1nc2ccc(NC(=O)c3ccc(-c4ccccc4)cc3)cc2s1)C(=O)O (centres unmarked) [TH181]
- % tracer bound @LC3A [1]: 78%

SMILES: CCCCCCC(Sc1nc(Cl)cc(Nc2nc(-c3ccc(Cl)cc3Cl)cs2)n1)C(=O)O (centres unmarked) [TH102]
- % tracer bound @LC3A [1]: 78%

SMILES: O=C1CC(c2ccc(Cl)c(Cl)c2)CC(=O)C1=CNCCN1CCNCC1 (centres unmarked) [Cov-3]
- RPE1 cell growth ([2]; 100 nM, 0 h): 12 and 21 and 11
- RPE1 cell growth ([2]; 100 nM, 2 h): 14 and 25 and 13
- RPE1 cell growth ([2]; 100 nM, 6 h): 19 and 28 and 14
- RPE1 cell growth ([2]; 100 nM, 12 h): 20 and 32 and 17
- RPE1 cell growth ([2]; 500 nM, 0 h): 15 and 23 and 13
- RPE1 cell growth ([2]; 500 nM, 2 h): 16 and 27 and 14
- RPE1 cell growth ([2]; 500 nM, 6 h): 20 and 32 and 17
- RPE1 cell growth ([2]; 500 nM, 10 h): 21 and 34 and 17
- RPE1 cell growth ([2]; 500 nM, 12 h): 23 and 35 and 18
- RPE1 cell growth ([2]; 1 uM, 0 h): 13 and 24
- RPE1 cell growth ([2]; 1 uM, 8 h): 16 and 20 and 31
- RPE1 cell growth ([2]; 1 uM, 10 h): 17 and 18 and 32
- RPE1 cell growth ([2]; 1 uM, 12 h): 18 and 19 and 34
- RPE1 cell growth ([2]; 3 uM, 0 h): 16 and 20 and 13
- RPE1 cell growth ([2]; 3 uM, 2 h): 21 and 23 and 14
- RPE1 cell growth ([2]; 3 uM, 4 h): 23 and 26 and 14
- RPE1 cell growth ([2]; 3 uM, 6 h): 24 and 27 and 16
- RPE1 cell growth ([2]; 3 uM, 8 h): 24 and 29 and 17
- RPE1 cell growth ([2]; 3 uM, 10 h): 23 and 29 and 18
- RPE1 cell growth ([2]; 3 uM, 12 h): 26 and 31 and 20
- RPE1 cell growth ([2]; 5 uM, 0 h): 16 and 20 and 13
- RPE1 cell growth ([2]; 5 uM, 2 h): 20 and 24 and 15
- RPE1 cell growth ([2]; 5 uM, 4 h): 22 and 26 and 15
- RPE1 cell growth ([2]; 5 uM, 6 h): 23 and 28 and 18
- RPE1 cell growth ([2]; 5 uM, 8 h): 24 and 30 and 18
- RPE1 cell growth ([2]; 5 uM, 10 h): 22 and 29 and 19
- RPE1 cell growth ([2]; 5 uM, 12 h): 23 and 32 and 20
- RPE1 cell growth ([2]; 10 uM, 0 h): 16 and 20 and 13
- RPE1 cell growth ([2]; 10 uM, 2 h): 19 and 23 and 17
- RPE1 cell growth ([2]; 10 uM, 4 h): 22 and 25 and 18
- RPE1 cell growth ([2]; 10 uM, 6 h): 22 and 29 and 20
- RPE1 cell growth ([2]; 10 uM, 8 h): 24 and 31 and 21
- RPE1 cell growth ([2]; 10 uM, 10 h): 23 and 30
- RPE1 cell growth ([2]; 10 uM, 12 h): 26 and 32 and 23
- U2OS cell growth ([3]; 100 nM, time 10 h): 33.6743 and 37.4722 and 28.8223
- U2OS cell growth ([3]; 100 nM, time 0 h): 14.5416 and 22.9345 and 12.3076
- U2OS cell growth ([3]; 100 nM, time 2 h): 20.4728 and 24.9456 and 18.1328
- U2OS cell growth ([3]; 100 nM, time 4 h): 32.466 and 35.1005 and 23.9495
- U2OS cell growth ([3]; 100 nM, time 6 h): 27.7123 and 37.9082 and 23.0201
- U2OS cell growth ([3]; 100 nM, time 8 h): 36.178 and 29.1087 and 28.1634
- U2OS cell growth ([3]; 500 nM, time 0 h): 19.4597 and 15.6761 and 23.7515
- U2OS cell growth ([3]; 500 nM, time 2 h): 17.2401 and 19.2948 and 26.8842
- U2OS cell growth ([3]; 500 nM, time 4 h): 23.0548 and 20.6729 and 33.4847
- U2OS cell growth ([3]; 500 nM, time 6 h): 31.9275 and 22.0748 and 27.2708
- U2OS cell growth ([3]; 500 nM, time 8 h): 20.0458 and 23.4357 and 28.1267
- U2OS cell growth ([3]; 1 uM, time 10 h): 29.6152
- U2OS cell growth ([3]; 1 uM, time 0 h): 18.8183 and 26.6645 and 23.9984
- U2OS cell growth ([3]; 1 uM, time 2 h): 21.0614 and 26.8371 and 29.3905
- U2OS cell growth ([3]; 1 uM, time 4 h): 24.6352 and 31.1306 and 32.3496
- U2OS cell growth ([3]; 1 uM, time 6 h): 26.5224 and 36.4121 and 30.4909
- U2OS cell growth ([3]; 1 uM, time 8 h): 20.3314 and 37.2236 and 29.7059
- U2OS cell growth ([3]; 3 uM, time 0 h): 36.1248 and 21.9705 and 35.4647
- U2OS cell growth ([3]; 3 uM, time 2 h): 38.4423 and 25.3153 and 30.1014
- U2OS cell growth ([3]; 3 uM, time 4 h): 41.4594 and 31.6601 and 38.4044
- U2OS cell growth ([3]; 3 uM, time 6 h): 35.1153 and 23.5308 and 36.0085
- U2OS cell growth ([3]; 3 uM, time 8 h): 37.1896 and 25.2973 and 34.3262
- U2OS cell growth ([3]; 5 uM, time 10 h): 45.8479 and 32.8378 and 36.0561
- U2OS cell growth ([3]; 5 uM, time 0 h): 35.0072 and 29.5152 and 28.3077
- U2OS cell growth ([3]; 5 uM, time 2 h): 34.3656 and 30.4257 and 30.1228
- U2OS cell growth ([3]; 5 uM, time 4 h): 36.9905 and 31.4377 and 28.9247
- U2OS cell growth ([3]; 5 uM, time 6 h): 42.578 and 38.6163 and 31.6899
- U2OS cell growth ([3]; 5 uM, time 8 h): 38.0361 and 32.4495 and 27.1279
- U2OS cell growth ([3]; 10 uM, time 10 h): 36.2219 and 24.7441 and 23.9347
- U2OS cell growth ([3]; 10 uM, time 0 h): 31.5761 and 18.5024 and 22.4964
- U2OS cell growth ([3]; 10 uM, time 2 h): 30.3213 and 20.7145 and 20.7242
- U2OS cell growth ([3]; 10 uM, time 4 h): 34.613 and 22.1736 and 25.1322
- U2OS cell growth ([3]; 10 uM, time 6 h): 35.028 and 21.2307 and 23.3926
- U2OS cell growth ([3]; 10 uM, time 8 h): 32.1571 and 22.7698 and 18.9042

Now from value to compound:

- % tracer bound @LC3A [1]: 88%
SMILES: O=C(NCc1ccccc1)c1ccc(S(=O)(=O)Nc2ccccc2)cc1 [TH253]

- % tracer bound @LC3A [1]: 84%
SMILES: CN(Cc1ccccc1)C(=O)c1ccc(S(=O)(=O)Nc2ccccc2)cc1 [TH676]

- % tracer bound @LC3A [1]: 78%
SMILES: CCCCCCC(Sc1nc2ccc(NCc3ccccc3)cc2s1)C(=O)O (centres unmarked) [TH195]
